Measurements from patent publication US11192921B2 (priority 2017, dated 2021).
Several values for one entry are separate records, joined by “and”; a condition that tells them apart may be missing. Identical values can stand only once. Like-named read-outs stand apart in the source and are kept apart here. Marks after values point to notes of the source that are not given here. No end group written: not given here.

Tests used:
Female Kunming mice [1] = type: in vivo
Kunming mice [2] = type: in vivo
Kunming mice [3] = settings: mouse, in vivo
male BALB/c mice = assay: cancer-induced pain (CIP) model, thermosensitive test; type: in vivo; settings: heat radiation stimulation
Description: Influence of Analgesic Polypeptides on Neuralgia in a Cancer-Induced Pain (CIP) Model
A number of male BALB/c mice each weighing 25-30 g were used.
Von Fery monofilament; a microsyringe, 5 mg/mL solutions of polypeptides I, II and II I; normal saline.
BALB/c mice were taken, and the right sciatic nerve was exposed; ascites containing 5×10^4 Meth A sarcoma cells were injected into the proximal nerve near the sciatic nerve trochanter far from the tendon branch of the posterior biceps, the wound was closed, and the same volume of normal saline was injected into the left side by performing a sham operation.
1.3.1 Thermosensitive Test
On the 4th, 7th, 10th and 14th days after inoculation, the latency of foot lifting caused by heat radiation stimulation to animals was observed, and the heat radiation intensity was adjusted to cause the latency of foot lifting of normal mice to be (10±2) s.
All data was expressed as M±SD and subjected to one-way ANOVA.

SD rats = assay: pain threshold of trigeminal nerve (trigeminal neuralgia model); type: in vivo; settings: for highest pain threshold on the operative side / pain threshold on the opposite side: 3 h after injection; for Pain threshold: intraperitoneal
Female Kunming mice [4] = tested on: Female Kunming mice
Female Kunming mice [5] = tested on: Female Kunming mice; remark: listed apart in the source
Female Kunming mice [6] = tested on: Female Kunming mice; remark: listed apart in the source
[7] = 50 μg/kg, injected subcutaneously
[8] = 100 μg/kg, injected subcutaneously

## KCSTPPDAVLYC (cysteine pairing not given here) [Polypeptide III, one pair of disulfide bonds formed between the two cysteines]
Female Kunming mice [1]; 0 min
  Pain threshold: 29.22 ± 0.11 s
Female Kunming mice [1]; mouse, in vivo, ip
  Pain threshold: 31.22 ± 0.42^∧∧ s and 33.12 ± 0.32*^∧ s and 27.23 ± 0.42^∧ s and 21.49 ± 0.45^∧ s and 32.14 ± 0.42 s and 21.43 ± 0.24 s
  heat thresholds of mice compared with the normal saline negative control group: effectively increase the heat thresholds of mice
Kunming mice [2]; 0 min
  Pain threshold (tail flick): 2.31 ± 0.22 s
Kunming mice [2]; 15 min
  Pain threshold (tail flick): 2.22 ± 0.21^∧∧ s
Kunming mice [2]; 30 min
  Pain threshold (tail flick): 2.32 ± 0.12 s
Kunming mice [2]; 45 min
  Pain threshold (tail flick): 4.12 ± 0.12^∧ s
Kunming mice [2]; 60 min
  Pain threshold (tail flick): 2.12 ± 0.21 s
Kunming mice [2]; 75 min
  Pain threshold (tail flick): 2.14 ± 0.12 s
Kunming mice [2]; 90 min
  Pain threshold (tail flick): 3.12 ± 0.14 s
Kunming mice [2]; mouse, in vivo
  difference from the normal saline group during a time period (**P<0.01): significantly different from the normal saline group
Kunming mice [3]
  analgesic effects in formalin-induced pain experiments: good analgesic effects
  cumulative foot licking time, Phase I: 47.19 ± 10.21*^
  cumulative foot licking time, Phase II: 41.23 ± 13.21
Male BALB/c mice; before administration
  Latency of foot lifting before administration: 9.77 ± 1.21
Male BALB/c mice; day 4
  Latency (D) of foot lifting after administration: 9.45 ± 1.02
Male BALB/c mice; day 7
  Latency (D) of foot lifting after administration: 8.88 ± 0.86
Male BALB/c mice; day 10
  Latency (D) of foot lifting after administration: 8.26 ± 1.21
Male BALB/c mice; day 14
  Latency (D) of foot lifting after administration: 6.78 ± 1.22
SD rats; 50 μg/kg and 100 μg/kg, injected subcutaneously
  animal reaction thresholds: significantly increased
SD rats; [7]
  time the pain thresholds lasted: 1 h
  highest pain threshold on the operative side: 2.3 ± 0.5 g
  pain threshold on the opposite side: 1.2 ± 0.2 g
SD rats; [8]
  time the effect on the operative side lasted: about 8 h
  highest pain threshold on the operative side: 7.4 ± 0.9 g
  pain threshold on the opposite side: 3.2 ± 1.3 g
SD rats; 300 μg/kg, subcutaneously
  pain threshold change: not significantly increased
SD rats; Dose 50 (μg/kg), 0 h
  Pain threshold: 25.98 ± 0.11 s
SD rats; Dose 50 (μg/kg), 1 h
  Pain threshold: 26.25 ± 0.46 s
SD rats; Dose 50 (μg/kg), 2 h
  Pain threshold: 26.69 ± 0.62 s
SD rats; Dose 50 (μg/kg), 3 h
  Pain threshold: 26.91 ± 0.49 s
SD rats; Dose 50 (μg/kg), 4 h
  Pain threshold: 27.91 ± 0.26 s
SD rats; Dose 50 (μg/kg), 5 h
  Pain threshold: 26.91 ± 0.61 s
SD rats; Dose 100 (μg/kg), 0 h
  Pain threshold: 26.56 ± 0.23 s
SD rats; Dose 100 (μg/kg), 1 h
  Pain threshold: 27.65 ± 0.61 s
SD rats; Dose 100 (μg/kg), 2 h
  Pain threshold: 28.16 ± 0.59 s
SD rats; Dose 100 (μg/kg), 3 h
  Pain threshold: 27.19 ± 0.91 s
SD rats; Dose 100 (μg/kg), 4 h
  Pain threshold: 28.16 ± 0.61 s
SD rats; Dose 100 (μg/kg), 5 h
  Pain threshold: 26.16 ± 0.91 s
SD rats; Dose 300 (μg/kg), 0 h
  Pain threshold: 26.15 ± 0.65 s
SD rats; Dose 300 (μg/kg), 1 h
  Pain threshold: 31.95 ± 0.56 s
SD rats; Dose 300 (μg/kg), 2 h
  Pain threshold: 30.21 ± 0.64 s
SD rats; Dose 300 (μg/kg), 3 h
  Pain threshold: 29.91 ± 0.61 s
SD rats; Dose 300 (μg/kg), 4 h
  Pain threshold: 28.85 ± 0.41 s
SD rats; Dose 300 (μg/kg), 5 h
  Pain threshold: 27.92 ± 0.61 s
Female Kunming mice [4]; 1 h
  Movement distances of mice in open field tests: 18.27 ± 1.22^
  Movement distances of mice in the center area in open field tests: 18.57 ± 1.22^
  Movement distances of mice in the peripheral area in open field tests: 19.47 ± 1.32^
  Number of entrances to the center area in open field tests: 18.47 ± 0.32^
  Number of entrances to the peripheral area in open field tests: 18.57 ± 1.42^
  Residence time in the center area in open field tests: 18.37 ± 1.22^ s
  Residence time in the peripheral area in open field tests: 14.27 ± 1.34^ s
Female Kunming mice [4]; 24 h
  Movement distances of mice in open field tests: 19.13 ± 2.38 m
  Movement distances of mice in the center area in open field tests: 18.13 ±1.38 m
  Movement distances of mice in the peripheral area in open field tests: 19.03 ± 2.48 m
  Number of entrances to the center area in open field tests: 18.23 ± 1.48
  Number of entrances to the peripheral area in open field tests: 17.13 ± 2.18
  Residence time in the center area in open field tests: 18.13 ± 1.38 s
  Residence time in the peripheral area in open field tests: 18.13 ± 1.45 s
Female Kunming mice [4]; Time 0
  Movement distances of mice in open field tests: 21.28 ± 1.28 m
  Movement distances of mice in the center area in open field tests: 21.88 ±1.18 m
  Movement distances of mice in the peripheral area in open field tests: 20.98 ± 1.28 m
  Number of entrances to the center area in open field tests: 21.28 ± 1.28
  Number of entrances to the peripheral area in open field tests: 21.28 ± 1.38
  Residence time in the center area in open field tests: 21.78 ± 1.17 s
  Residence time in the peripheral area in open field tests: 21.88 ± 1.38 s
Female Kunming mice [4]; mouse, in vivo, ip
  side effects compared with conotoxin (open field): lower side effects
  various indexes in open field experiments compared with the normal saline group: no significant difference
Female Kunming mice [5]; 1 h
  Movement duration of mice in forced swimming tests: 18.57 ± 1.21^ s
Female Kunming mice [5]; 24 h
  Movement duration of mice in forced swimming tests: 17.13 ± 1.23 s
Female Kunming mice [5]; Time 0
  Movement duration of mice in forced swimming tests: 21.40 ± 1.38 s
Female Kunming mice [5]; mouse, in vivo, ip
  toxic side effects compared with the conotoxin (forced swimming): lower toxic side effects
Female Kunming mice [6]; 1 h
  Duration of the immobility of mice in tail suspension tests: 20.12 ± 1.28 s
Female Kunming mice [6]; 24 h
  Duration of the immobility of mice in tail suspension tests: 19.23 ± 1.84 s
Female Kunming mice [6]; Time 0
  Duration of the immobility of mice in tail suspension tests: 19.28 ± 1.02 s
Female Kunming mice [6]; mouse, in vivo, ip
  data of tail suspension test compared with the normal saline group: no significant difference
  toxic side effects compared with the conotoxin (tail suspension): lower toxic side effects
